Measurements as given in patent US20020192736A1, “Assay of peroxidase activity” (Pierce Chemical Company, priority 2001, published 2002).
Values joined by “and” are separate entries in the source; they are usually repeats but may differ in a detail not shown here. Identical values can stand only once. Like-named read-outs stand apart in the source and are kept apart here.

Key:
[1] = molecular target: horseradish peroxidase labeled streptavidin (SA-HRP) (Armoracia rusticana, UniProt P00433); assay: Dot blot assay on nitrocellulose membrane, film densitometry (relative intensity); format: biochemical
B-HRP = molecular target: T1, B-HRP (Armoracia rusticana, UniProt P00433); assay: Dot blot assay with B-HRP, film densitometry; conditions: for Net Relative Intensity at 0.98 pg B-HRP / Net Relative Intensity at 3.9 pg B-HRP / Net Relative Intensity at 62.5 pg B-HRP / Net Relative Intensity at 250 pg B-HRP: […] Azine Enhancer, 5 mM Sodium Luminol
T1 sequence (P00433 31-338): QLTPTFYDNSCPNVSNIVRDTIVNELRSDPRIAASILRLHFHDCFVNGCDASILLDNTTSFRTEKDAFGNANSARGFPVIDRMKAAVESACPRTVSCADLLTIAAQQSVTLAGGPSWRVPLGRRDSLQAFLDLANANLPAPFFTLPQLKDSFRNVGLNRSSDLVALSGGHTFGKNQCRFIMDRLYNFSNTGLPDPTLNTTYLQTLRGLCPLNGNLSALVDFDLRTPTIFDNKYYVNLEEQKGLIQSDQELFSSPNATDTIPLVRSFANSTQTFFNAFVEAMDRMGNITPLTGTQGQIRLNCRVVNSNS

oxidized peroxidase = assay: Poisoning of the chemiluminescent system; format: biochemical; conditions: azine with hydrogen atom bonded to the ring nitrogen
Experimental: The contaminant has been identified as a reducing azine species wherein the azine is capable of donating an electron or otherwise reacting with oxidized peroxidase (or peroxidase equivalent). […] This characterization has been made both by theoretic analysis, chemical analysis to determine the presence of the 10=H species, and by reconstruction experiments wherein the “poisoning azine” was added to highly purified azine compositions in order to quantitate the poisoning effects, and to establish the preferred purity of the azine enhancers. […] Concentrations or absolute amounts of a target analyte, which are one-tenth the minimum detectable by other systems can be detected in preferred systems of the invention. […]
This species is a non-enhancing oxidized species of […]. […] If a thiazine with a hydrogen in the 10-yl position is proven to be a non-poisoning species (by its inability to readily react with oxidized peroxidase at room temperature), its presence in or absence from the solution is inconsequential. […] By describing these compounds as inert or not readily reactive with oxidized peroxidase, the basis for the consideration of these terms is visible effects upon luminescence in a peroxidase system. […]

[2] = 50 μM Azine Enhancer, 1 mM Sodium Luminol
[3] = […] Azine Enhancer, 5 mM Sodium Luminol
[4] = 20 pg SA-HRP, enhancer concentrations as in row ([…] 1c; 52 μM 1c; 52 μM 1b; 13.5 μM 3)
[5] = 30 minute reexposure, working solutions: […] 1c, 52 μM 1c, 52 μM 1b, 13.5 μM 3, 52 μM 1b + 13.5 μM 3

Chain of horseradish peroxidase labeled streptavidin (SA-HRP) (P22629 25-183 partner, one chain of several): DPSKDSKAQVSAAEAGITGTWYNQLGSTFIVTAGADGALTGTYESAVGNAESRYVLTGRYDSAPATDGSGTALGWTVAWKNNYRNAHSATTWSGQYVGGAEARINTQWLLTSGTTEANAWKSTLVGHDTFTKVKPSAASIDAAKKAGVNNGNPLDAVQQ

O=C(O)CCCN1c2ccccc2Sc2ccccc21 [Azine Enhancer 1e]
Net Relative Intensity at 10 pg SA-HRP [1, 2]: 1,416,056 | Net Relative Intensity at 100 pg SA-HRP [1, 2]: 4,351,240 | Net Relative Intensity at 1000 pg SA-HRP [1, 2]: 9,599,880 | Net Relative Intensity at 10 pg SA-HRP [1, 3]: 432,352 | Net Relative Intensity at 100 pg SA-HRP [1, 3]: 3,021,440 | Net Relative Intensity at 1000 pg SA-HRP [1, 3]: 8,706,320

O=S(=O)([O-])CCCCN1c2ccccc2Sc2ccc(Cl)cc21.[Na+] [Azine Enhancer 1h]
Net Relative Intensity at 0.98 pg B-HRP (B-HRP): 0.20 | Net Relative Intensity at 3.9 pg B-HRP (B-HRP): 0.55 | Net Relative Intensity at 62.5 pg B-HRP (B-HRP): 44.09 | Net Relative Intensity at 250 pg B-HRP (B-HRP): 75.58

[O-][O+]1c2ccccc2Nc2ccccc21 [phenoxazine-5-oxide]
poisoning of the chemiluminescent system (oxidized peroxidase): does not poison the system

O=C1C=CC(=Nc2ccc(O)cc2)C=C1 [Phenolic Enhancer 3, Phenolindophenol/indophenol]
Relative Intensity 1 minute [1, 4]: 747,888 | Relative Intensity 5 minutes [1, 4]: 707,432 | Relative Intensity 30 minutes [1, 4]: 598,082 | Relative Intensity 1 hours [1, 4]: 492,016 | Relative Intensity 2 hours [1, 4]: 274,888 | Relative Intensity 24 hours [1, 4]: 0 | Relative Intensity 2 pg SA-HRP [1, 5]: 0 | Relative Intensity 5 pg SA-HRP [1, 5]: 106,776 | Relative Intensity 20 pg SA-HRP [1, 5]: 598,072

c1ccc2c(c1)Nc1ccccc1S2 [Azine Poison 1a, phenothiazine]
Background RI at 0 pg of B-HRP (B-HRP): 7.74 and 6.15 and 6.01 and 7.24 | Relative Intensity at 250 pg of B-HRP (B-HRP): 180.38 and 209.39 and 165.28

2-chloro-10 (3 trimethyl amino propyl)-phenothiazonan bromide [Azine Enhancer 1d]
Net Relative Intensity at 0.98 pg B-HRP (B-HRP): 0 | Net Relative Intensity at 3.9 pg B-HRP (B-HRP): 0 | Net Relative Intensity at 62.5 pg B-HRP (B-HRP): 1.70 | Net Relative Intensity at 250 pg B-HRP (B-HRP): 15.63 | Net Relative Intensity at 1000 pg SA-HRP [1]: 1,106,656 and 1,538,600

CC(CN1c2ccccc2Sc2ccccc21)C[N+](C)(C)C.[Cl-] (stereo not drawn) [Azine Enhancer 1g]
Net Relative Intensity at 0.98 pg B-HRP (B-HRP): 0 | Net Relative Intensity at 3.9 pg B-HRP (B-HRP): 0 | Net Relative Intensity at 62.5 pg B-HRP (B-HRP): 2.16 | Net Relative Intensity at 250 pg B-HRP (B-HRP): 17.92

O=S(=O)([O-])CCCCN1c2ccccc2Sc2ccccc21.[Na+] [Azine Enhancer 1f]
Net Relative Intensity at 0.98 pg B-HRP (B-HRP): 12.05 | Net Relative Intensity at 3.9 pg B-HRP (B-HRP): 28.77 | Net Relative Intensity at 62.5 pg B-HRP (B-HRP): 91.44 | Net Relative Intensity at 250 pg B-HRP (B-HRP): 151.53

CN1c2ccccc2Sc2ccccc21 [Azine Enhancer 1b, N-Methylphenothiazine]
Net Relative Intensity at 10 pg SA-HRP [1]: 0 | Net Relative Intensity at 100 pg SA-HRP [1]: 0 | Relative Intensity 2 pg SA-HRP [1]: 0 | Relative Intensity 5 pg SA-HRP [1]: 0 | Relative Intensity 20 pg SA-HRP [1]: 573,864 | Relative Intensity 1 minute [1]: 457,800 | Relative Intensity 5 minutes [1]: 628,408 | Relative Intensity 30 minutes [1]: 573,864 | Relative Intensity 1 hours [1]: 502,376 | Relative Intensity 24 hours [1]: 0
